System: guinea pig skin
Experiment: Pigment changes with topical application on guinea pig skin (melanin stimulation)
Type: in vivo
Description: Compounds 10, 117 and 123 in a solution of 75% PG/25% DMSO at 300 μM and 600 μM were provided in light tight containers and stored at 4 degrees C. Solutions were brought to room temp and vortexed prior to each use. Female Guinea pigs were shaved with electric clippers and the remaining stubble removed with Nair. The dorsal area of each guinea pig was divided into 2-3 sections. Treatment with compounds/vehicle began immediately after Nair application. 25 μL of each solution was applied to the assigned treatment site twice daily for 5 days. Hair removal, monitoring and photography continued once weekly for 30 days. Photos were taken with a Nikon D80 Digital SLR camera and Miravex Antera Melanin sensing camera.

[1] = 0.025 mL of 600 μM applied on guinea pig skin twice daily for five consecutive days, by day 15

## Cc1cn(CC(Cn2cc(C)c(=O)[nH]c2=O)C(=O)O)c(=O)[nH]c1=O [Compound 117]
[1]
  melanin stimulation relative to surrounding untreated skin: marked melanin stimulation

## Thymidine dinucleotide 5′-phosphate [reference compound]
[1]
  melanin stimulation relative to surrounding untreated skin: marked melanin stimulation

## C[C@@]12C(=O)NC(=O)N3CCCN4C(=O)NC(=O)[C@]1(C)[C@H]4[C@H]32 [Compound 10]
0.025 mL of 300 μM applied on guinea pig skin twice daily for five consecutive days, by day 8
  melanin stimulation relative to surrounding untreated skin: marked melanin stimulation

— US9987211B2, “Sunless tanning compounds and compositions” (REGENTS OF THE UNIVERSITY OF MINNESOTA, priority 2013, dated 2018)
